Some test systems named below: SK-MEL-2 melanoma; SW-620 colon; SK-MEL-28 melanoma; NCI-H460 lung; SR leukemia; M14 melanoma; OVCAR-4 ovarian; UO-31 renal; OVCAR-5 ovarian; EKVX NSCLC; K-562 leukemia; 786-0 renal; SF-295 CNS; A549 NSCLC; KM12 colon; UACC-257 melanoma; BT-549 breast; HOP-62 NSCLC; RXF 393 renal; A498 renal.
Holding throughout (experiment): growth of human tumour cells (NCI), 48 h

The values that follow come from PubChem BioAssay (NCI).

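Protocol summary: plate cells (96-well), add compound at 5 concentrations, incubate 48 h, interpolate endpoints linearly. The concentration for full growth arrest is given as TGI.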 Bounds are passed on as bounds.

`Cc1ccc(C(=O)Oc2ccccc2)cc1N=NN(C)C`: the TGI with SK-MEL-2 melanoma, in the experiment with SW-620 colon, in the experiment with SK-MEL-28 melanoma, with NCI-H460 lung, in the experiment on SR leukemia and in the experiment on M14 melanoma was over 100 µM each time. Besides, the TGI with OVCAR-4 ovarian, in the experiment with UO-31 renal, in the experiment with OVCAR-5 ovarian, in the experiment with EKVX NSCLC, in the experiment on K-562 leukemia and in the experiment with 786-0 renal was over 100 µM each time. In addition, the TGI in the experiment with SF-295 CNS, with A549 NSCLC, in the experiment on KM12 colon, in the experiment with UACC-257 melanoma, in the experiment on BT-549 breast and with HOP-62 NSCLC was over 100 µM each time.

In the case of `Cc1ccc(-c2cc(-c3ccccc3)c(C#N)c(=O)[nH]2)cc1`, the TGI with SW-620 colon, in the experiment with SK-MEL-28 melanoma, in the experiment on NCI-H460 lung, in the experiment on RXF 393 renal, in the experiment with SR leukemia and in the experiment with M14 melanoma was over 100 µM in each case. For the same compound, the TGI in the experiment with OVCAR-4 ovarian, in the experiment with UO-31 renal, in the experiment on OVCAR-5 ovarian, in the experiment on A498 renal, in the experiment with EKVX NSCLC and in the experiment on K-562 leukemia was over 100 µM each time. Moreover, the TGI in the experiment on 786-0 renal, with SF-295 CNS, in the experiment on A549 NSCLC, in the experiment with KM12 colon, with UACC-257 melanoma and in the experiment with HOP-62 NSCLC was over 100 µM in each case.

Take `CCCCOC/N=C(/N)NC#N`: the TGI was over 100 µM in the experiment on SK-MEL-2 melanoma; 34.3 µM with SW-620 colon; over 100 µM in the experiment on SK-MEL-28 melanoma; over 100 µM with NCI-H460 lung; over 100 µM in the experiment on RXF 393 renal; 63.1 µM in the experiment on SR leukemia. Moreover, the TGI in the experiment on M14 melanoma, in the experiment with OVCAR-4 ovarian, in the experiment on UO-31 renal, in the experiment with OVCAR-5 ovarian, with A498 renal and in the experiment with EKVX NSCLC was over 100 µM throughout. Moreover, the TGI with K-562 leukemia, in the experiment with 786-0 renal, in the experiment with SF-295 CNS, with A549 NSCLC, in the experiment with KM12 colon and with UACC-257 melanoma was over 100 µM throughout. Further, in the experiment on HOP-62 NSCLC, the TGI was over 100 µM.

For the compound `CC1=CCC(C(C)(C)NC(=O)c2ccccc2)C/C1=N/O` (configuration not stated), the TGI in the experiment on SW-620 colon, in the experiment on SK-MEL-28 melanoma, in the experiment on NCI-H460 lung, with M14 melanoma, in the experiment with OVCAR-4 ovarian and in the experiment on UO-31 renal was over 100 µM each time. The TGI in the experiment on OVCAR-5 ovarian, in the experiment on EKVX NSCLC, in the experiment with K-562 leukemia, in the experiment with 786-0 renal, with SF-295 CNS and in the experiment with A549 NSCLC was over 100 µM in each case. Further, the TGI with KM12 colon, with UACC-257 melanoma, in the experiment on BT-549 breast and with HOP-62 NSCLC was over 100 µM each time.

Consider `O=[N+]1[C@H](c2ccccc2)[C@H](c2ccccc2)N1[O-]`, for which the TGI in the experiment with SK-MEL-2 melanoma was 32.8 µM; in the experiment with SW-620 colon, 28.2 µM; in the experiment on SK-MEL-28 melanoma, 30.5 µM; in the experiment on NCI-H460 lung, 43.2 µM; with RXF 393 renal it was 28.3 µM; in the experiment on SR leukemia it was 37.7 µM. For the same compound, the TGI was 29.6 µM in the experiment on M14 melanoma; 59.2 µM with OVCAR-4 ovarian; 28.5 µM in the experiment on UO-31 renal; 35.8 µM in the experiment on OVCAR-5 ovarian; 67.3 µM in the experiment on A498 renal; 33.8 µM in the experiment with EKVX NSCLC. Moreover, the TGI in the experiment on K-562 leukemia was over 100 µM; in the experiment on 786-0 renal, 26.8 µM; with SF-295 CNS, 38.6 µM; in the experiment on A549 NSCLC it was 41.1 µM; in the experiment with KM12 colon it was 45.3 µM; in the experiment with UACC-257 melanoma, 26.3 µM. Further, the TGI with HOP-62 NSCLC is 40.7 µM.

Regarding `O=[N+]([O-])c1ccc(-c2nn3c(C45CC6CC(CC(C6)C4)C5)nnc3s2)c(Cl)c1`, the TGI in the experiment with SK-MEL-2 melanoma, in the experiment with SW-620 colon, in the experiment on SK-MEL-28 melanoma, in the experiment with NCI-H460 lung, in the experiment with RXF 393 renal and in the experiment on SR leukemia was over 100 µM throughout. In addition, the TGI with M14 melanoma, in the experiment with OVCAR-4 ovarian, in the experiment with UO-31 renal, in the experiment with OVCAR-5 ovarian, in the experiment with A498 renal and in the experiment with EKVX NSCLC was over 100 µM throughout. Moreover, the TGI with K-562 leukemia, in the experiment with 786-0 renal, in the experiment on SF-295 CNS, in the experiment on A549 NSCLC, in the experiment on KM12 colon and in the experiment with HOP-62 NSCLC was over 100 µM each time.

In the case of `CCOC(=O)CCC(NC(=O)c1ccc(NC(OC)c2nc3cc(C(F)(F)F)ccc3nc2-c2ccccc2)cc1)C(=O)OCC` (configuration not stated), the TGI in the experiment on SK-MEL-2 melanoma was 33.1 µM; with SW-620 colon, 20.7 µM; in the experiment with SK-MEL-28 melanoma it was 31.6 µM; in the experiment on NCI-H460 lung it was 26.2 µM; with RXF 393 renal, 27.2 µM; in the experiment on SR leukemia, over 100 µM. For the same compound, the TGI in the experiment on M14 melanoma amounted to 29 µM; in the experiment on OVCAR-4 ovarian, 55.1 µM; with UO-31 renal, 26.8 µM; in the experiment with OVCAR-5 ovarian, 31.5 µM; with A498 renal it was 34.5 µM; with EKVX NSCLC, 33.6 µM. Further, the TGI is over 26.6 µM with K-562 leukemia; 26.6 µM in the experiment with 786-0 renal; 31.2 µM with SF-295 CNS; 39.4 µM with A549 NSCLC; 19.1 µM in the experiment on KM12 colon; 32.2 µM in the experiment on UACC-257 melanoma. Besides, the TGI in the experiment with HOP-62 NSCLC is 31.2 µM.
